Measurements reported in ChEMBL document CHEMBL1149471, “Pharmacophore-based virtual screening: the discovery of novel methionyl-tRNA synthetase inhibitors” (Bioorg Med Chem Lett, 2006).

Each compound was assayed against Methionine--tRNA ligase (Escherichia coli K-12, UniProt P00959) (assay: Inhibition of Escherichia coli MetRS assessed as decrease in [35S]methionyl tRNAMet production by SPA).
Methionine--tRNA ligase, sequence (P00959 whole entry): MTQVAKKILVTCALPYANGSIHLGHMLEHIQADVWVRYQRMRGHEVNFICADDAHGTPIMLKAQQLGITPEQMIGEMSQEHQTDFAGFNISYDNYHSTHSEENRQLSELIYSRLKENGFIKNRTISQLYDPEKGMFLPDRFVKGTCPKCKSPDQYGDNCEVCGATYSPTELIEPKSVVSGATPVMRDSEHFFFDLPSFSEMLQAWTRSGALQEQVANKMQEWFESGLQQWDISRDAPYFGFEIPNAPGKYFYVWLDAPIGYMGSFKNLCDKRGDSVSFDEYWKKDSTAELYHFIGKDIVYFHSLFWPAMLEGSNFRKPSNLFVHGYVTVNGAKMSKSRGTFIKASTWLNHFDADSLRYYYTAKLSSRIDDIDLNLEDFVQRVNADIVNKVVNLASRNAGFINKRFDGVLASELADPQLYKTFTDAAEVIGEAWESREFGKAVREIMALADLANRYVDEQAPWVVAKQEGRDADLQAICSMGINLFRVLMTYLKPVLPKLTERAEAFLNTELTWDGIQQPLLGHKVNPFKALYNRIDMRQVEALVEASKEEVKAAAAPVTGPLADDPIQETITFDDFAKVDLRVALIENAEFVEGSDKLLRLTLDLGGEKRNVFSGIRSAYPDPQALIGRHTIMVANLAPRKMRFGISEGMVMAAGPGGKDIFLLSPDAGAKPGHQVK

In order of falling IC50:
1. NS(=O)(=O)c1ccc(CCNC(=S)Nc2cccc(C(F)(F)F)c2)cc1  47.7 µM
2. O=C(CC(=O)Nc1ccccc1C(=O)O)Nc1nc2ccc(Br)cc2s1  30.5 µM
3. O=C(CNC(=O)c1cccc(Br)c1)N/N=C/c1ccc(C(=O)O)cc1  22.8 µM
4. O=C(CNC(=O)c1cccs1)N/N=C/c1ccc(C(=O)O)cc1  0.237 µM
